{"source": "paper PMC11358582", "about": "“Discovery of a potential bladder cancer inhibitor CHNQD-01281 by regulating EGFR and promoting infiltration of cytotoxic T cells” (Marine Life Science & Technology, 2024)", "key": {"EGFR [1]": {"system": "EGFR", "test": "Western blot of EGFR expression in J82 cells", "format": "cell-based, human", "conditions": "J82, 0.16 µmol/L, versus control", "protocol": "(§1) T24 and J82 cell lines were lysed in protein lysis buffer, which included phosphatase inhibitors and a cocktail of protease inhibitors. A BCA kit (SparkJade, China) was used to determine the total protein concentration. After protein denaturation, SDS-PAGE electrophoresis was performed and the protein transferred from the gel to a PVDF membrane (Millipore, USA). Then primary antibodies against cleaved caspases-3, cleaved PARP, AKT, phosphorylated AKT, ERK1/2, phosphorylated ERK1/2, EGFR, mTOR, phosphorylated mTOR and Tubulin (CST, USA) were diluted at 1:1000 at 4 °C overnight. The membranes were then washed and incubated with secondary antibodies dissolved in 5% nonfat milk. A chemiluminescence imaging system was used to detect the signals (Tanon, China).\n(§2) EGFR is overexpressed in malignant urothelial cells, which is associated with the deterioration, invasiveness and metastasis of tumors. It is a potential therapeutic target for bladder carcinoma. Therefore, we examined the expression of EGFR and its downstream proteins after treating bladder cancer cells with CHNQD-01281 (Supplementary Fig. S11). […] Taken together, CHNQD-01281 inhibited the proliferation of bladder cancer cells and induced apoptosis through EGFR/PI3K/AKT and EGFR/ERK pathways to exert antitumor effects."}, "J82 cell line": {"system": "J82 cell line", "test": "Colony formation assay", "format": "cell-based", "conditions": "Homo sapiens, 288 h, 12 days, read-out: inhibition rate on colony formation", "protocol": "(§3) T24 and J82 cell lines were seeded in 6-well plates at 500 cells/well. The cells were cultured overnight in medium. Compound CHNQD-01281 was added according to the concentration gradient, and the cells were placed in a 37 °C cell incubator containing 5% CO2 for 12 days. The cells were then fixed with 4% paraformaldehyde for 15 min and stained with crystal violet for 30 min. After that, pictures were taken and colony numbers were counted. The clone formation rate relative to the solvent control group was calculated.\n(§4) Cell proliferation ability was also detected by colony formation assay (Kabakov et al. [2018]), and the results are shown in Fig. 3A−B. CHNQD-01281 was applied for 12 days to detect long-term proliferation inhibition of T24 and J82 cell lines."}, "T24 cell line": {"system": "T24 cell line", "test": "Colony formation assay", "format": "cell-based", "conditions": "Homo sapiens, T-24, 288 h, 12 days, read-out: inhibition rate on colony formation", "protocol": "as §3, §4"}, "p-ERK/ERK": {"system": "p-ERK/ERK", "test": "Western blot of EGFR downstream proteins", "format": "cell-based, human", "conditions": "0.16 µmol/L", "protocol": "as §1, §2"}, "p-mTOR/mTOR": {"system": "p-mTOR/mTOR", "test": "Western blot of EGFR downstream proteins", "format": "cell-based, human", "conditions": "0.16 µmol/L", "protocol": "as §1, §2"}, "p-AKT/AKT": {"system": "p-AKT/AKT", "test": "Western blot of EGFR downstream proteins", "format": "cell-based, human", "conditions": "0.16 µmol/L", "protocol": "as §1, §2"}, "EGFR [2]": {"system": "EGFR", "test": "Western blot of EGFR expression in T24 cells", "format": "cell-based, human", "conditions": "T24, 0.16 µmol/L, versus control", "protocol": "as §1, §2"}, "MB49 tumor": {"system": "MB49 tumor", "test": "MB49 homologous (syngeneic) tumor model", "format": "in vivo, C57BL/6 mice", "protocol": "(§5) Specific pathogen free (SPF)-grade C57BL/6 mice and BALB/c-nu mice were purchased from Jinan Pengyue Experimental Animal Center (license No. SCXK 20190003). The protocol was approved by the Research Review Committee of the Ocean University of China. All mice were housed in 12-h light and 12-h dark conditions in which the humidity was 50% ± 10% and the temperature was 22 ± 2 °C. All mice had free access to food and water. The human bladder cancer cell line T24 was injected subcutaneously into BALB/c-nu mice to construct a xenograft tumor model. The cell suspension of mouse bladder cancer cell line MB49 was injected into C57BL/6 mice subcutaneously to construct a syngeneic tumor model.\n(§6) Fixed tissues were embedded in paraffin and then sectioned. The specimens were incubated with antibodies against Ki67, CD3, CD4, CD8 (Servicebio, China) and EGFR (ABclonal, China) at 4 °C overnight. The next day, the slides were washed with 1 × PBST three times for 5 min each and stained with the secondary antibodies and Hoechst 33342 dye (Beyotime, China) for 60 min for IF. For IHC staining, the sections were developed with a rabbit/mouse HRP kits (DAB) (Beyotime, China) according to the manufacturer’s instructions.\nIn addition, apoptosis, necrosis, and increased eosinophil cytoplasm were observed and there was a large number of lymphocyte infiltration in the treatment group."}, "[3]": {"test": "Single-dose safety profile, HE staining of main organs", "format": "in vivo, C57BL/6 mice", "conditions": "single dose 100 mg/kg, i.p.", "protocol": "To further investigate the safety profile of CHNQD-01281 in vivo, the HE staining of the heart, liver, spleen, lung, kidney and duodenum of C57 mice were analyzed after the single dose of CHNQD-01281 (100 mg/kg, i.p.). […] The distribution of CHNQD-01281 in tumor and main organs of C57BL/6 mice was then analyzed.\nFig. S14. Safety profile and tissue distribution of CHNQD-01281 in vivo. A Representative H&E staining images (scale bar: 50 μm) of main organs from vehicle and CHNQD-01281 (100 mg/kg, ip.) treated C57BL/6 mice (n = 3). B Bodyweight evaluation of mouse after treatment with vehicle and CHNQD-01281. C Tissue distribution of CHNQD-01281 in C57BL/6 mice (n = 3)."}, "T24 xenograft": {"system": "T24 xenograft", "test": "T24 nude mice xenograft model", "format": "in vivo, BALB/c-nu mice", "conditions": "for reduction of Ki67 expression level (IHC): tumor tissue", "protocol": "as §5, §6\nTherefore, xenograft and homologous tumor models were constructed to further evaluate the antitumor effect of CHNQD-01281 in vivo. The mouse bladder cancer xenograft model was established by the subcutaneous inoculation of the T24 cell line, then CHNQD-01281 was intraperitoneally administrated for two consecutive weeks (Fig. 5A)."}}, "data": [{"smiles": "C[C@H]1CCC/C=C/[C@@H]2C[C@H](O)C[C@H]2[C@H](OC(=O)/C=C/c2cccnc2)/C=C/C(=O)O1", "note": "[CHNQD-01281, Brefeldin A 4-O-3-(pyridin-3-yl) acrylate]", "values": [{"measurement": "maximum down-regulation of EGFR expression", "setting": "EGFR [1]", "value": 87.61, "unit": "%"}, {"measurement": "inhibition at 0.04 µM", "setting": "J82 cell line; J82, 0.04 µmol/L", "value": 25.1, "unit": "%"}, {"measurement": "inhibition at 0.08 µM", "setting": "J82 cell line; J82, 0.08 µmol/L", "value": 58.3, "unit": "%"}, {"measurement": "inhibition at 0.16 µM", "setting": "J82 cell line; J82, 0.16 µmol/L", "value": 85.9, "unit": "%"}, {"measurement": "inhibition at 0.04 µM", "setting": "T24 cell line; T24, 0.04 µmol/L", "value": 17, "unit": "%"}, {"measurement": "inhibition at 0.08 µM", "setting": "T24 cell line; T24, 0.08 µmol/L", "value": 52.5, "unit": "%"}, {"measurement": "inhibition at 0.16 µM", "setting": "T24 cell line; T24, 0.16 µmol/L", "value": 95.5, "unit": "%"}, {"measurement": "decrease of p-ERK/ERK expression level", "setting": "p-ERK/ERK", "value": 96.95, "unit": "%"}, {"measurement": "decrease of p-mTOR/mTOR expression level", "setting": "p-mTOR/mTOR", "value": 60.36, "unit": "%"}, {"measurement": "decrease of p-AKT/AKT expression level", "setting": "p-AKT/AKT", "value": 99.96, "unit": "%"}, {"measurement": "maximum down-regulation of EGFR expression", "setting": "EGFR [2]", "value": 77.61, "unit": "%"}, {"measurement": "mice with tumor disappearance", "setting": "MB49 tumor; 10 mg/kg intratumoral, no recurrence within 30 days after cessation", "value": 20, "unit": "%"}, {"measurement": "life prolongation rate (ILS)", "setting": "MB49 tumor; 10 mg/kg, intratumoral injection, QD", "value": 68.16, "unit": "%"}, {"measurement": "infiltration of CD3+, CD4+ and CD8+ T cells (immunofluorescence)", "setting": "MB49 tumor; 10 mg/kg, intratumoral injection, QD, tumor tissue", "value": "significantly increased"}, {"measurement": "HE staining of heart, liver, spleen, lung, kidney and duodenum", "setting": "[3]", "value": "no obvious abnormalities in cell and tissue morphology"}, {"measurement": "reduction of Ki67 expression level (IHC)", "setting": "T24 xenograft; 15 mg/kg, versus control", "value": 38.32, "unit": "%"}, {"measurement": "expression of EGFR in tumor (IHC)", "setting": "T24 xenograft; 30 mg/kg", "value": "significantly down-regulated expression of EGFR"}, {"measurement": "tumor growth inhibition rate (TGI %)", "setting": "T24 xenograft; 30 mg/kg, i.p., QD, two weeks, tumor volume", "value": 52.63, "unit": "%"}, {"measurement": "reduction of Ki67 expression level (IHC)", "setting": "T24 xenograft; 30 mg/kg, versus control", "value": 66.47, "unit": "%"}, {"measurement": "reduction of tumor weight", "setting": "T24 xenograft; 30 mg/kg, versus control", "value": 48.57, "unit": "%"}]}]}
